Data published in ChEMBL document CHEMBL1144434, “Structure-activity relationships within a series of caspase inhibitors. Part 2: Heterocyclic warheads” (Bioorg Med Chem Lett, 2005).
pIC50: −log10 of the molar value.

Key:
Caspase-3 (Homo sapiens) = target: T1, Caspase-3 (Homo sapiens) (UniProt P42574); assay: Binding affinity against Caspase-3
T1 sequence (whole entry): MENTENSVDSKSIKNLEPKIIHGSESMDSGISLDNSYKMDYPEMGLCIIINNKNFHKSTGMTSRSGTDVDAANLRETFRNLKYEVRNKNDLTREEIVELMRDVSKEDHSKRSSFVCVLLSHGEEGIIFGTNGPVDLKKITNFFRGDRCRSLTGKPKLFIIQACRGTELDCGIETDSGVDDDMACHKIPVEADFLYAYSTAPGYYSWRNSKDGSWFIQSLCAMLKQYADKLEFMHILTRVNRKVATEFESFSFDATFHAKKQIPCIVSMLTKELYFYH

Caspase-6 (Homo sapiens) = target: T2, Caspase-6 (Homo sapiens) (UniProt P55212); assay: Binding affinity against Caspase-6
T2 sequence (whole entry): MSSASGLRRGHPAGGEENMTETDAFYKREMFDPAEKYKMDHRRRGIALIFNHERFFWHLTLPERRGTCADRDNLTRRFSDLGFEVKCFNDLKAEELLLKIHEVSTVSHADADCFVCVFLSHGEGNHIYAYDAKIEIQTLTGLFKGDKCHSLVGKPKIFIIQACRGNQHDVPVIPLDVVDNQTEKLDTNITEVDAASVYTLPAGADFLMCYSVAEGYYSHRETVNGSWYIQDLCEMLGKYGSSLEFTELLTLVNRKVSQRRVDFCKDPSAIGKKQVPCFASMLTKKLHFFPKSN

Caspase-8 (Homo sapiens) = Caspase-8 (Homo sapiens) (UniProt Q14790); assay: Binding affinity against Caspase-8
Sequence of Caspase-8 (Homo sapiens) (Q14790 217-374 limits assumed): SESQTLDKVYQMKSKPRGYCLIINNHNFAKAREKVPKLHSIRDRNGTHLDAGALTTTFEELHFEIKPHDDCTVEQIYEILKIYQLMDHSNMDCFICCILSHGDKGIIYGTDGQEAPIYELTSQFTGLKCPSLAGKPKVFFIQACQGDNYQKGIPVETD
Sequence of Caspase-8 (Homo sapiens) (Q14790 385-479 limits assumed): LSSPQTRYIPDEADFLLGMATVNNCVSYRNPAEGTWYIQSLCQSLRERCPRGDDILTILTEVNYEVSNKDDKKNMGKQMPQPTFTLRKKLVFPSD

Caspase-1 (Mus musculus) = target: T3, Caspase-1 (Mus musculus) (UniProt P29452); assay: Binding affinity against mouse Caspase-1
T3 sequence (whole entry): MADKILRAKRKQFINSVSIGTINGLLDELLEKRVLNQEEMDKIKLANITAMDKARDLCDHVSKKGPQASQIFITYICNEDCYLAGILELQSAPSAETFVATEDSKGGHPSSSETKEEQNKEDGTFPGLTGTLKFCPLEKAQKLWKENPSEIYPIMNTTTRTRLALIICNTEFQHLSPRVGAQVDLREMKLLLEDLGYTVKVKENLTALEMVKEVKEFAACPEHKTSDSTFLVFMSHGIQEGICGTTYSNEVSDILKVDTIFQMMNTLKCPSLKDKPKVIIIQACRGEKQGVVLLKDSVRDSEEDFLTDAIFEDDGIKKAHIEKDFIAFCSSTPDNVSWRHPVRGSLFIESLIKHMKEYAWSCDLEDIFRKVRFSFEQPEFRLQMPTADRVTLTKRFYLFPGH

Jurkat = assay: Inhibitory concentration for cellular activity in jurkat assay; format: functional, cell-based; conditions: Homo sapiens

Structure (SMILES)	k3/ki (Caspase-3 (Homo sapiens))	k3/ki (Caspase-6 (Homo sapiens))	k3/ki (Caspase-8 (Homo sapiens))	k3/ki (Caspase-1 (Mus musculus))	pIC50 (Jurkat)
COC(=O)c1cc(OCC(=O)[C@H](CC(=O)O)NC(=O)[C@@H](NC(=O)COc2cccc3ccccc23)C(C)C)no1	144000 1/m/s	5800 1/m/s	6340 1/m/s	42500 1/m/s	4.15
CC(C)[C@H](NC(=O)COc1cccc2ccccc12)C(=O)N[C@@H](CC(=O)O)C(=O)CSc1nc(-c2ccccc2)cs1	2730 1/m/s	0 1/m/s	0 1/m/s	217 1/m/s	< 3.70
CC(C)[C@H](NC(=O)COc1cccc2ccccc12)C(=O)N[C@@H](CC(=O)O)C(=O)COn1nnc2ccccc21	121000 1/m/s	8530 1/m/s	14500 1/m/s	28300 1/m/s	< 3.70
CC(C)[C@H](NC(=O)COc1cccc2ccccc12)C(=O)N[C@@H](CC(=O)O)C(=O)CSc1ccccn1	348 1/m/s	0 1/m/s	0 1/m/s	0 1/m/s	–
CC(C)[C@H](NC(=O)COc1cccc2ccccc12)C(=O)N[C@@H](CC(=O)O)C(=O)COc1nccc(C(F)(F)F)n1	0 1/m/s	0 1/m/s	0 1/m/s	0 1/m/s	< 3.70
CC(C)[C@H](NC(=O)COc1cccc2ccccc12)C(=O)N[C@@H](CC(=O)O)C(=O)COc1ccnc(C(F)(F)F)n1	114000 1/m/s	5150 1/m/s	3200 1/m/s	24800 1/m/s	4.43
CC(C)[C@H](NC(=O)COc1cccc2ccccc12)C(=O)N[C@@H](CC(=O)O)C(=O)COc1ccc2ccccc2n1	979 1/m/s	0 1/m/s	9 1/m/s	67 1/m/s	< 3.70
CC(C)[C@H](NC(=O)COc1cccc2ccccc12)C(=O)N[C@@H](CC(=O)O)C(=O)COc1ccncn1	0 1/m/s	0 1/m/s	0 1/m/s	0 1/m/s	< 3.70
CC(C)[C@H](NC(=O)COc1cccc2ccccc12)C(=O)N[C@@H](CC(=O)O)C(=O)CSc1nc2ccccc2o1	0 1/m/s	–	0 1/m/s	0 1/m/s	< 3.70
CC(C)[C@H](NC(=O)COc1cccc2ccccc12)C(=O)N[C@@H](CC(=O)O)C(=O)COc1cc(C(F)(F)F)n(C)n1	35500 1/m/s	509 1/m/s	295 1/m/s	9400 1/m/s	4.34
CC(C)[C@H](NC(=O)COc1cccc2ccccc12)C(=O)N[C@@H](CC(=O)O)C(=O)CSc1nc[nH]n1	401 1/m/s	17 1/m/s	0 1/m/s	115 1/m/s	< 3.70
CC(C)[C@H](NC(=O)COc1cccc2ccccc12)C(=O)N[C@@H](CC(=O)O)C(=O)CSc1nccc(C(F)(F)F)n1	0 1/m/s	0 1/m/s	0 1/m/s	0 1/m/s	< 3.70
Cc1cc(C)nc(OCC(=O)[C@H](CC(=O)O)NC(=O)[C@@H](NC(=O)COc2cccc3ccccc23)C(C)C)n1	283 1/m/s	0 1/m/s	0 1/m/s	10 1/m/s	–
CC(C)[C@H](NC(=O)COc1cccc2ccccc12)C(=O)N[C@@H](CC(=O)O)C(=O)CSc1nccn1C	11500 1/m/s	570 1/m/s	212 1/m/s	1200 1/m/s	< 3.70
CC(C)[C@H](NC(=O)COc1cccc2ccccc12)C(=O)N[C@@H](CC(=O)O)C(=O)CSc1nnnn1C	34400 1/m/s	2150 1/m/s	6510 1/m/s	3630 1/m/s	< 3.70
CC(C)[C@H](NC(=O)COc1cccc2ccccc12)C(=O)N[C@@H](CC(=O)O)C(=O)COc1cc2ccccc2cn1	3350 1/m/s	96 1/m/s	8 1/m/s	693 1/m/s	< 3.70
CC(C)[C@H](NC(=O)COc1cccc2ccccc12)C(=O)N[C@@H](CC(=O)O)C(=O)CSc1nc(-c2ccccc2)c(-c2ccccc2)o1	2010 1/m/s	0 1/m/s	218 1/m/s	200 1/m/s	< 3.70
CC(C)[C@H](NC(=O)COc1cccc2ccccc12)C(=O)N[C@@H](CC(=O)O)C(=O)CSc1nc(-c2ccccc2)c(-c2ccccc2)[nH]1	1390 1/m/s	22 1/m/s	0 1/m/s	199 1/m/s	< 3.70
CC(C)[C@H](NC(=O)COc1cccc2ccccc12)C(=O)N[C@@H](CC(=O)O)C(=O)CSc1nnnn1-c1ccccc1	19200 1/m/s	224 1/m/s	0 1/m/s	400 1/m/s	3.82
CC(C)[C@H](NC(=O)COc1cccc2ccccc12)C(=O)N[C@@H](CC(=O)O)C(=O)COc1nccc2ccccc12	1310 1/m/s	462 1/m/s	177 1/m/s	360 1/m/s	3.97
CC(C)[C@H](NC(=O)COc1cccc2ccccc12)C(=O)N[C@@H](CC(=O)O)C(=O)COc1cc(C(F)(F)F)ncn1	1750 1/m/s	156 1/m/s	0 1/m/s	479 1/m/s	< 3.70
CC(C)[C@H](NC(=O)COc1cccc2ccccc12)C(=O)N[C@@H](CC(=O)O)C(=O)COc1ccccn1	733 1/m/s	5 1/m/s	8 1/m/s	138 1/m/s	< 3.70
Cc1cc(C)nc(SCC(=O)[C@H](CC(=O)O)NC(=O)[C@@H](NC(=O)COc2cccc3ccccc23)C(C)C)n1	7130 1/m/s	656 1/m/s	120 1/m/s	950 1/m/s	< 3.70
CC(C)[C@H](NC(=O)COc1cccc2ccccc12)C(=O)N[C@@H](CC(=O)O)C(=O)CSc1nc2ccccc2[nH]1	1770 1/m/s	25 1/m/s	10 1/m/s	168 1/m/s	< 3.70
CC(C)c1cc(OCC(=O)[C@H](CC(=O)O)NC(=O)[C@@H](NC(=O)COc2cccc3ccccc23)C(C)C)no1	21800 1/m/s	220 1/m/s	279 1/m/s	3670 1/m/s	< 3.70
CC(C)[C@H](NC(=O)COc1cccc2ccccc12)C(=O)N[C@@H](CC(=O)O)C(=O)CSc1nnc(-c2ccccc2)o1	4800 1/m/s	110 1/m/s	276 1/m/s	280 1/m/s	3.82
CC(C)[C@H](NC(=O)COc1cccc2ccccc12)C(=O)N[C@@H](CC(=O)O)C(=O)CSc1nncn1C	2260 1/m/s	221 1/m/s	293 1/m/s	180 1/m/s	< 3.70
CC(C)[C@H](NC(=O)COc1cccc2ccccc12)C(=O)N[C@@H](CC(=O)O)C(=O)COc1ncnc2ccccc12	343 1/m/s	0 1/m/s	4 1/m/s	83 1/m/s	< 3.70
